Type in all cases: biochemical
Assay [1] has as its target T1, human JAK3 (aa 795-1124) catalytic domain (Homo sapiens, UniProt P52333).
T1 construct: JAK3 (aa 795-1124); GST (N); purchased Carna Biosciences; host or cells: baculovirus expression system
In words: In vitro JAK kinase assay (TR-FRET), JAK3. The conditions noted are these: GST-fusion catalytic domain; ATP 0.6 μM; poly (GT)-Biotin 140 nM; 30 minutes at room temperature. The protocol: (§1) Compounds were screened for their ability to inhibit JAK1, JAK2 and JAK3 using the assays as indicated below.
(§2) The catalytic domains of human JAK1 (aa 850-1154), JAK2 (aa 826-1132), JAK3 (aa 795-1124) and Tyk2 (aa 871-1187) were expressed as N-terminal GST-fusion proteins using a baculovirus expression system and were purchased from Carna Biosciences. The enzymatic activity was assayed using as substrate a biotinylated peptide, poly (GT)-Biotin (CisBio). The peptide concentration in the reactions was 60 nM for JAK1, 20 nM for JAK2, 140 nM for JAK3 and 50 nM for Tyk2. The degree of phosphorylation was detected by TR-FRET (time-resolved fluorescence energy transfer).
(§3) IC50s of compounds were measured for each kinase in a reaction mixture containing the enzyme, ATP and the peptide in 8 mM MOPS (pH 7.0), 10 mM MgCl2, 0.05% β-mercaptoethanol, 0.45 mg/mL BSA. The ATP concentration in the reactions was 3 μM for JAK1, 0.2 μM for JAK2, 0.6 μM for JAK3 and 1.8 μM for Tyk2. The enzymatic reactions took place for 30 minutes at room temperature. Then, the reactions were stopped with 20 μL of quench detection buffer (50 mM HEPES, 0.5 M KF, EDTA 0.25 M, 0.1% (w/v) BSA, pH 7.5) containing 0.115 μg/mL of anti-phosphoTyr (PT66)-Cryptate (CisBio) and a variable concentration of SA-XL665 (CisBio) to keep the SA-B ratio constant. Incubate for 3 h and read on Victor 2V spectrofluorometer (PerkinElmer) set to read fluorescence resonance energy transfer.

Assay [2] deals with T2, human JAK2 (aa 826-1132) catalytic domain (Homo sapiens, UniProt O60674).
T2 construct: JAK2 (aa 826-1132); GST (N); purchased Carna Biosciences; host or cells: baculovirus expression system
T2 sequence (O60674 826-1132): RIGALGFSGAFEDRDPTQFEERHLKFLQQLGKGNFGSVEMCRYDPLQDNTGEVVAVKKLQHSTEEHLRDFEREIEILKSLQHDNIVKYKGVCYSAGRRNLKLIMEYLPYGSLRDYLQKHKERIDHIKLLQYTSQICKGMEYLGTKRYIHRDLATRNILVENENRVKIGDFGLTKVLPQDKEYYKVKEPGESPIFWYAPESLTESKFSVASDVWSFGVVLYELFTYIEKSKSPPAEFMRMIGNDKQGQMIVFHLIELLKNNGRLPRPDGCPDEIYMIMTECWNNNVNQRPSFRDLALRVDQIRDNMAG
In words: In vitro JAK kinase assay (TR-FRET), JAK2. As to conditions: GST-fusion catalytic domain; ATP 0.2 μM; poly (GT)-Biotin 20 nM; 30 minutes at room temperature. The protocol: as §1, §2, §3

Assay [3] deals with T3, human JAK1 (aa 850-1154) catalytic domain (Homo sapiens, UniProt P23458).
T3 construct: human JAK1 (aa 850-1154); GST (N); purchased Carna Biosciences; host or cells: baculovirus expression system
T3 sequence (P23458 850-1154): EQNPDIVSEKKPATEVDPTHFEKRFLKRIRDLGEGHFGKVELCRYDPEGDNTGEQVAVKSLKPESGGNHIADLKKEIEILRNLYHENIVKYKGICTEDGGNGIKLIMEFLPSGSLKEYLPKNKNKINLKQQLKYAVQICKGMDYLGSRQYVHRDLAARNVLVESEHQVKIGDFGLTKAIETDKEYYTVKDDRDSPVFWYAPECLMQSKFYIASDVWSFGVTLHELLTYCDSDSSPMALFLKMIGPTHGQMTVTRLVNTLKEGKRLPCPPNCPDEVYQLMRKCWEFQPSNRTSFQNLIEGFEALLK
In words: In vitro JAK kinase assay (TR-FRET), JAK1. As to conditions: GST-fusion catalytic domain; ATP 3 μM; poly (GT)-Biotin 60 nM; 30 minutes at room temperature. The protocol: as §1, §2, §3

T1 sequence (P52333 795-1124): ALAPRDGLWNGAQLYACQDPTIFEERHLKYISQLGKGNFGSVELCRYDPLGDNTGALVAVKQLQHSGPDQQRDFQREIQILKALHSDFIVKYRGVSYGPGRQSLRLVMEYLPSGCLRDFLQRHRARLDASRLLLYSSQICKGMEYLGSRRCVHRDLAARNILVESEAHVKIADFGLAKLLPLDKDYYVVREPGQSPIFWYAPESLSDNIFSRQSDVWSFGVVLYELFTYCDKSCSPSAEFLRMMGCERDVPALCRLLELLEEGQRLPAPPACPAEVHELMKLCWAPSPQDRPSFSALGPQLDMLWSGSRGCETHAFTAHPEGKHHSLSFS

As for `C[C@H](Nc1ccnc(-c2cnc3ccc(C#N)cn23)n1)c1ccccc1` [Example 1, 3-(4-{[(1S)-1-Phenylethyl]amino}pyrimidin-2-yl)imidazo[1,2-a]pyridine-6-carbonitrile], the IC50 in assay [1] was less than 100 nM; in assay [2], less than 100 nM; in assay [3] it was 100 to 1000 nM.
For `COCCNc1ccnc(-c2cnc3ccc(C#N)cn23)n1` [Example 6, 3-{4[(2-Methoxyethyl)amino]pyrimidin-2-yl}imidazo[1,2-a]pyridine-6-carbonitrile], the IC50 in assay [1] is 100 to 1000 nM; in assay [2] it was 100 to 1000 nM; in assay [3], more than 1000 nM.
Consider `CC(C)(C)CNc1nc(-c2cnc3ccc(C#N)cn23)ncc1N1CCNCC1` [Example 10, 3-{4-[(2,2-Dimethylpropyl)amino]-5-piperazin-1-ylpyrimidin-2-yl}imidazo[1,2-a]pyridine-6-carbonitrile], for which the IC50 in assay [1] is 100 to 1000 nM; in assay [2], less than 100 nM; in assay [3], more than 1000 nM.
Regarding `CC(C)(C)CNc1nc(-c2cnc3ccc(C#N)cn23)ncc1-c1cccnc1` [Example 13, 3-{4-[(2,2-Dimethylpropyl)amino]-5-pyridin-3-ylpyrimidin-2-yl}imidazo[1,2-a]pyridine-6-carbonitrile], the figures for the IC50 in assay [1], in assay [2] and in assay [3] were 100 to 1000 nM, 100 to 1000 nM and more than 1000 nM, respectively.
Consider `N#Cc1ccc2ncc(-c3nccc(NC4CCCCC4)n3)n2c1` [Example 21, 3-[4-(Cyclohexylamino)pyrimidin-2-yl]imidazo[1,2-a]pyridine-6-carbonitrile], for which the figures for the half-inhibitory concentration (IC50) in assay [1], in assay [2] and in assay [3] were less than 100 nM, less than 100 nM and 100 to 1000 nM, respectively.
In the case of `N#Cc1ccc2ncc(-c3nccc(N[C@H]4CC[C@H](O)CC4)n3)n2c1` [Example 22, 3-{4-[(Trans-4-hydroxycyclohexyl)amino]pyrimidin-2-yl}imidazo[1,2-a]pyridine-6-carbonitrile], the half-inhibitory concentration (IC50) in assay [1] was less than 100 nM; in assay [2], less than 100 nM; in assay [3] it was more than 1000 nM.
With `CC(C)(C)CNc1nc(-c2cnc3ccc(C#N)cn23)nc2ccccc12` [Example 25], the IC50 in assay [1], in assay [2] and in assay [3] was 100 to 1000 nM throughout.
Turning to `CC(C)(C)CNc1ccnc(-c2cnc3ccccn23)n1` [Example 31, N-(2,2-Dimethylpropyl)-2-imidazo[1,2-a]pyridin-3-ylpyrimidin-4-amine], the 50% inhibitory concentration (IC50) is 100 to 1000 nM in assay [1], less than 100 nM in assay [2] and 100 to 1000 nM in assay [3].
As for `C[C@H](Nc1cncc(-c2cnc3ccc(C4CC4)cn23)n1)c1ccccc1` [Example 38, 6-(6-Cyclopropylimidazo[1,2-a]pyridin-3-yl)-N-[(1S)-1-phenylethyl]pyrazin-2-amine], the 50% inhibitory concentration (IC50) in assay [1] was 100 to 1000 nM; in assay [2] it was less than 100 nM; in assay [3] it was more than 1000 nM.
In the same order, the values of `C[C@H](Nc1cncc(-c2cnc3ccc(-c4ccccc4)cn23)n1)c1ccccc1` [Example 42, N-[(1S)-1-Phenylethyl]-6-(6-phenylimidazo[1,2-a]pyridin-3-yl)pyrazin-2-amine] are more than 1000 nM, 100 to 1000 nM and more than 1000 nM.
`CC(C)S(=O)(=O)N1CCC[C@@H](Nc2ccnc(-c3cnc4ccc(C#N)cn34)n2)C1` [Example 45, 3-(4-{[(3R)-1-(Isopropylsulfonyl)piperidin-3-yl]amino}pyrimidin-2-yl)imidazo[1,2-a]pyridine-6-carbonitrile]: the half-maximal inhibitory concentration (IC50) in assay [1] was 100 to 1000 nM; in assay [2], 100 to 1000 nM; in assay [3], more than 1000 nM.
Take `N#Cc1ccc(N2CCC[C@@H](Nc3ccnc(-c4cnc5ccc(C#N)cn45)n3)C2)nc1` [Example 57, 3-(4-{[(3R)-1-(5-Cyanopyridin-2-yl)piperidin-3-yl]amino}pyrimidin-2-yl)imidazo[1,2-a]pyridine-6-carbonitrile]: the half-inhibitory concentration (IC50) is less than 100 nM in assay [1], less than 100 nM in assay [2] and more than 1000 nM in assay [3].
On to `N#CCC(=O)N1CCC[C@@H](Nc2ccnc(-c3cnc4ccc(F)cn34)n2)C1` [Example 64, 3-((3R)-3-{[2-(6-Fluoroimidazo[1,2-a]pyridin-3-yl)pyrimidin-4-yl]amino}piperidin-1-yl)-3-oxopropanenitrile], for which the IC50 in assay [1], in assay [2] and in assay [3] was less than 100 nM throughout.
Consider `O=C(c1cn[nH]c1)N1CCC[C@@H](Nc2ccnc(-c3cnc4ccc(F)cn34)n2)C1` [Example 67, 2-(6-Fluoroimidazo[1,2-a]pyridin-3-yl)-N-[(3R)-1-(1H-pyrazol-4ylcarbonyl)piperidin-3-yl]pyrimidin-4-amine], for which the IC50 in assay [1] is 100 to 1000 nM; in assay [2], less than 100 nM; in assay [3], 100 to 1000 nM.
`CN(CC#N)C(=O)N1CCC[C@@H](Nc2ccnc(-c3cnc4ccc(F)cn34)n2)C1` [Example 68, (3R)—N-(Cyanomethyl)-3-{[2-(6-fluoroimidazo[1,2-a]pyridin-3-yl)pyrimidin-4-yl]amino}-N-methylpiperidine-1-carboxamide]: the IC50 in assay [1] was less than 100 nM; in assay [2], less than 100 nM; in assay [3], 100 to 1000 nM.
For `O=C(CC(F)(F)F)N1CCC[C@@H](N(CC2CC2)c2ccnc(-c3cnc4ccc(F)cn34)n2)C1` [Example 76, N-(Cyclopropylmethyl)-2-(6-fluoroimidazo[1,2-a]pyridin-3-yl)-N-[(3R)-1-(3,3,3-trifluoropropanoyl)piperidin-3-yl]pyrimidin-4-amine], the results for the IC50 in assay [1], in assay [2] and in assay [3] were 100 to 1000 nM, less than 100 nM and more than 1000 nM, respectively.
In the same order, the values of `Cc1cnc(-c2cnc3ccc(F)cn23)nc1N[C@@H]1CCCN(C(=O)CC(F)(F)F)C1` [Example 80, 2-(6-Fluoroimidazo[1,2-a]pyridin-3-yl)-5-methyl-N-[(3R)-1-(3,3,3-trifluoropropanoyl)piperidin-3-yl]pyrimidin-4-amine] are less than 100 nM, less than 100 nM and less than 100 nM.
For `N#CCC(=O)N1CCCN(c2ccnc(-c3cnc4ccc(C#N)cn34)n2)CC1` [Example 82, 3-{4-[4-(Cyanoacetyl)-1,4-diazepan-1-yl]pyrimidin-2-yl}imidazo[1,2-a]pyridine-6-carbonitrile], the IC50 was more than 1000 nM in assay [1], 100 to 1000 nM in assay [2] and more than 1000 nM in assay [3].
Take `CCCN1CC[C@@H](Nc2ccnc(-c3cnc4ccc(F)cn34)n2)C1=O` [Example 89, (R)-3-(2-(6-Fluoroimidazo[1,2-a]pyridin-3-yl)pyrimidin-4-ylamino)-1-propyl pyrrolidin-2-one]: the half-inhibitory concentration (IC50) was more than 1000 nM in assay [1], 100 to 1000 nM in assay [2] and more than 1000 nM in assay [3].
Regarding `Fc1ccc2ncc(-c3nccc(N4CCCC4c4ccccn4)n3)n2c1` (stereo not drawn) [Example 90, 6-Fluoro-3-(4-(2-(pyridin-2-yl)pyrrolidin-1-yl)pyrimidin-2-yl)imidazo[1,2-a]pyridine], the IC50 in assay [1] is less than 100 nM; in assay [2] it was less than 100 nM; in assay [3] it was more than 1000 nM.
`CCN(CC)C(=O)[C@H]1CCCN1c1ccnc(-c2cnc3ccc(F)cn23)n1` [Example 92, (R)—N,N-Diethyl-1-(2-(6-fluoroimidazo[1,2-a]pyridin-3-yl)pyrimidin-4-yl)pyrrolidine-2-carboxamide]: the results for the IC50 in assay [1], in assay [2] and in assay [3] were more than 1000 nM, less than 100 nM and 100 to 1000 nM, respectively.

These data come from patent US20130216498A1, “IMIDAZOPYRIDINE DERIVATIVES AS JAK INHIBITORS” (priority 2009, published 2013).
